Test in all cases: IC50 Determination
For test [1], the target named is T1, Aldehyde dehydrogenase, dimeric NADP-preferring (Homo sapiens, UniProt P30838).
T1 sequence (P30838 whole entry): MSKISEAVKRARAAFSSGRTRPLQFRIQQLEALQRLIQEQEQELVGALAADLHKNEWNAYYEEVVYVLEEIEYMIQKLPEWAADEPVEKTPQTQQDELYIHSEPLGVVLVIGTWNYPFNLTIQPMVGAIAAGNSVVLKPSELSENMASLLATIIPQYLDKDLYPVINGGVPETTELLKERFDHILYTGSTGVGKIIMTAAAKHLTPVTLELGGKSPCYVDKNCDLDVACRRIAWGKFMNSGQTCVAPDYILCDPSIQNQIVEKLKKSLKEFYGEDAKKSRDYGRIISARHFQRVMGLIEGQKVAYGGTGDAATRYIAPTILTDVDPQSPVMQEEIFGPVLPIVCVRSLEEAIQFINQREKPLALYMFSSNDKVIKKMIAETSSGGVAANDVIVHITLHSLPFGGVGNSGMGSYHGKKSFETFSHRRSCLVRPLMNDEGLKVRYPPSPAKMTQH
On the procedure:
(§1) To determine the IC50 values for CB29 and its analogues, propionaldehyde was used as the substrate for ALDH1A1 and ALDH2 and benzaldehyde was used as the substrate for ALDH3A1. The assays were performed at various concentrations of inhibitors, ranging from 50 nM to 250 uM, following 1 min preincubation. All reactions were initiated by the addition of the aldehyde substrate.

In test [2] the target is T2, Aldehyde dehydrogenase 1A1 (Homo sapiens, UniProt P00352).
T2 sequence (P00352 whole entry): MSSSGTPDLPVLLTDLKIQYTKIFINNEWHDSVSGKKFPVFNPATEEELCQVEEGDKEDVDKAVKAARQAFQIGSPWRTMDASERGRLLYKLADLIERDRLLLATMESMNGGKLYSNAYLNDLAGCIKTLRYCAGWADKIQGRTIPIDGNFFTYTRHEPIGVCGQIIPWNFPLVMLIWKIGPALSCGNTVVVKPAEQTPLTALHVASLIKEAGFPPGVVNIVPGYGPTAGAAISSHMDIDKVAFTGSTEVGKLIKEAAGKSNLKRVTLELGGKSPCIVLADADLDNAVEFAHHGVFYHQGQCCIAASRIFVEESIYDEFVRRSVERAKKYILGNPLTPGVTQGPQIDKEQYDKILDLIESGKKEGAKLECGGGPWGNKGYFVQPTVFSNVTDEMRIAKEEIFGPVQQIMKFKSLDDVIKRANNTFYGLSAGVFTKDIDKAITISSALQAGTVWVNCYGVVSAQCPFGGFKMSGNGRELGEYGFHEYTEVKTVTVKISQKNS
How it is done: as §1

Test [3] has as its target T1, Aldehyde dehydrogenase, dimeric NADP-preferring. This is another data set of the same source.

A word on the IC50: it is the concentration that gives 50% inhibition. Low readings indicate greater potency in that assay, high ones weaker potency in that assay. Broadly, the Ki is a measure of affinity in units of concentration, obtained from inhibition or displacement. High values mean weaker binding, low ones tighter binding.

As for `CN(C)c1ccc(Nc2ccc(S(=O)(=O)C(F)(F)F)cc2[N+](=O)[O-])cc1` [CB29 (derivative 5)], the midpoint of inhibition in test [1], the IC50, lay at 17 µM.
Take `CS(=O)(=O)c1ccc(Nc2ccc(NCC3CCCC3)cc2)c(S(C)(=O)=O)c1` [CB29 (derivative 6)]: the 50% inhibitory concentration (IC50) in test [1] stood at 40 µM; in test [2], 32 µM.
`CC(C)NS(=O)(=O)c1ccc(Nc2cccc(NC3CC3)c2)c([N+](=O)[O-])c1` [CB29 (derivative 9)] yielded an IC50 in test [1] of 26.3 µM.
On to `CC(C)C(=O)Nc1ccc(Nc2ccc(S(C)(=O)=O)cc2[N+](=O)[O-])cc1` [CB29 (derivative 12)], for which the half-maximal inhibitory concentration (IC50) in test [1] was 19.6 µM; in test [2], 16.8 µM.
For `CNS(=O)(=O)c1ccc(Nc2ccc(NC(=O)CC(C)C)cc2)c([N+](=O)[O-])c1` [CB29 (derivative 13)] the same measures were 42.3 µM and 11.6 µM.
On the same counts, the results for `CCN(CC)S(=O)(=O)c1ccc(Nc2ccc(NC(=O)C(C)C)cc2)c([N+](=O)[O-])c1` [CB29 (derivative 14)] are 100 µM and 8.3 µM.
With `CC(Nc1ccc(S(C)(=O)=O)cc1[N+](=O)[O-])C(=O)O` (configuration not stated) [CB29 (derivative 16)], it took 50 µM to reach half-maximal inhibition in test [2] (IC50).
Regarding `CS(=O)(=O)c1ccc(Nc2ccc3c(c2)CCC3)c([N+](=O)[O-])c1` [CB29 (derivative 17)], in test [1], it took 26.9 µM to reach half-maximal inhibition (IC50).
On the same count and under the same terms, the value for `CC(C)NS(=O)(=O)c1ccc(Nc2ccc3c(c2)CCC3)c([N+](=O)[O-])c1` [CB29 (derivative 18)] was 30.5 µM.
On the same count and under the same terms, the value for `CC(C)NS(=O)(=O)c1ccc(NC2CCN(CC(=O)Nc3ccccc3)CC2)c([N+](=O)[O-])c1` [CB29 (derivative 19)] was 25.6 µM; that for `CC(=O)Nc1ccc(Oc2ccc(S(=O)(=O)C(F)(F)F)cc2[N+](=O)[O-])cc1` [CB29 (derivative 20)] was 100 µM.
Consider `CC(=O)Nc1ccc(Nc2ccc(S(C)(=O)=O)cc2[N+](=O)[O-])cc1` [CB29], for which, in test [1], the IC50 was determined as 16 µM. This compound displayed a Ki in test [3] of 4.7 µM.

Values taken from BindingDB's records for doi:10.1002/cbic.201300625 (Indiana University, 2014).
